How the values were obtained:
ERα [1] = target: T1, ERα (Homo sapiens, UniProt P03372); experiment: Competitive 3H-estradiol binding assay, ERα; settings: 1 nM 3H-estradiol, HEK293T cytosolic extract; read-out: Binding ERα pKi (converted)
T1 sequence (P03372 1-595): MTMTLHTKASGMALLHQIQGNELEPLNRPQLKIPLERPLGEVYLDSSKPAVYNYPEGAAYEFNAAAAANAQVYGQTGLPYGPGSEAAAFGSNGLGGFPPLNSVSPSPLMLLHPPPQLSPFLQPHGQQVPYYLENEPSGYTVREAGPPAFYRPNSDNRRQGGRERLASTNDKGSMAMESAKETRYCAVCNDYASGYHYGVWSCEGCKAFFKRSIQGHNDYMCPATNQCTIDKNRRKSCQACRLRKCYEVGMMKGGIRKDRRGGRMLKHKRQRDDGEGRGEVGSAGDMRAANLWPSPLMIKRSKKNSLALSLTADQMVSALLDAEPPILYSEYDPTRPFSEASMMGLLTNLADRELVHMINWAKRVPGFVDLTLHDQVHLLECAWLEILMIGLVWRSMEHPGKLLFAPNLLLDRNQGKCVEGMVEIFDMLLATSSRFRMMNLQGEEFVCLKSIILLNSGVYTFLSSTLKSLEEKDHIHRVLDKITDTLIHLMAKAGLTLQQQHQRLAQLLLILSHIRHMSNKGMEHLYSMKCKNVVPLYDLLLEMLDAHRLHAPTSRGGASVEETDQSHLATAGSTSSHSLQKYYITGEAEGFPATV
Description: HEK293T cells were transiently transfected for 48 hours with expression vectors encoding ERα or ERβ, before being serum starved for 4-6 hours. Cells were then harvested by scraping in ice-cold PBS and subsequently lysed using a cold buffer containing 10 mM Tris pH 7.4, 1 mM EDTA, 1 mM DTT before being subjected to polytron twice for 10 seconds. Cytosolic extracts were isolated by centrifugation at 15000 g for 30 minutes at 4° C. Competitive binding of the test compounds or the estradiol control was performed on 20 μL extract by overnight incubation at 4° C. in a total volume of 100 μL containing 1 nM ^3H-estradiol (Perkin Elmer, Boston, Mass.). The bound fraction was separated from the unbound one by the addition of 100 μL of Dextran coated charcoal, incubated for 10 minutes and subsequent centrifugation at 1000 rpm for 10 minutes. Samples (100 μL per sample) were then analyzed by liquid scintillation. Data was then analyzed using the curve fitting software GraphPad Prism.

[2] = system: bilateral 6-hydroxydopamine (6OHDA) lesion of the substantia nigra; experiment: Bilateral 6OHDA lesion of the substantia nigra, behavioral assessment; type: in vivo, Male rats; settings: for prepulse inhibition (sensorimotor gating): 6OHDA rats, once daily 7 days sc, 10 mg/kg (estradiol 100 μg/kg); for motor performance (spontaneous locomotor activity, rotorod, challenging beam) / novel object recognition (cognition): rat, in vivo; for novel object recognition (cognition): sc, 10 mg/kg
Description: Male rats received baseline assessment of weight, motor function (spontaneous locomotor behavior, rotorod performance) and sensorimotor gating (prepulse inhibition). Subjects were assigned to treatment conditions to equalize performance on all these measures. Subjects were then treated once daily for 7 days with either sesame oil vehicle, estradiol (100 μg/kg sc), Comparative substance 131 (10 mg/kg sc), Compound 8 (10 mg/kg sc), Comparative substance 623 (10 mg/kg sc) or Comparative substance 957 (10 mg/kg sc). On the second day of treatment, subjects received bilateral sham or 6OHDA lesions (8 μg in 4 μl) of the substantia nigra (A/P−5.0 mm, M/L±1.6 mm, D/V−8.2 mm) following the atlas of Paxinos and Watson (Paxinos, G., Watson, C., The Rat Brain in Stereotaxic Coordinates, Fourth Edition, New York: Academic Press, Spiral Bound, 1998). Behavioral assessments of motor function (spontaneous locomotion, rotorod and traversing a challenging beam), cognition (novel object recognition) and sensorimotor gating (prepulse inhibition) began after the final day of treatment. Following behavioral assessment, SN and striatal tissue were collected in order to determine the intactness of the nigrostriatal dopamine system.

ERα [3] = target: T1, ERα; experiment: Luciferase reporter gene assay (3*ERE) in HEK293 cells, ERα; type: cell-based; parameters: expressed in transfected cells; host or cells: transient transfection; settings: 48 hours; for EC50: na = not active, read-out: Luciferase Erα pEC50 (converted)
Description: HEK293 cells were grown to 70% confluency in DMEM containing 10% calf serum (Hyclone) prior to transfection. On the day of transfection (day 1), expression vectors for ERα or ERβ were cotransfected along a construct containing a synthetic 3*ERE upstream of the luciferase gene (Panomics), using Polyfect (Qiagen) per manufacturer's recommendations (ERE being estrogen response element). Sixteen hours post-transfection, cells were incubated in serum free DMEM. […] Cells extracts were then obtained by lyzing and the Luciferase activity measured, all of these steps performed using a commercially available kit (Promega).

ERα [4] = target: T1, ERα; experiment: R-SAT functional assay, ERα; type: cell-based; parameters: expressed in transfected cells; host or cells: NIH-3T3 fibroblasts, transient transfection; settings: NIH-3T3 cells; for EC50: na = not active, read-out: R-SAT Erα pEC50 (converted)
Text: R-SAT® (Receptor Selection and Amplification Technology) is a cell-based functional assay that allows one to monitor receptor-dependent proliferative responses and has been described elsewhere. […] This process is achieved by partial cellular transformation via loss of contact inhibition and growth factor dependency. Monitoring is achieved by transfecting the cells with a β-galactosidase reporter gene vector whose expression is under a constitutively active promoter. Briefly, NIH-3T3 fibroblasts were plated overnight in 96-wells plates in DMEM 10% calf serum (Hyclone) and grown to 60-70% confluency prior to transfection. Transient transfections were performed using Polyfect (Qiagen) according to manufacturer's instructions. Typically a transfection mix would consist of the receptor and the β-galactosidase expression vectors. Sixteen hours post-transfection, cells were incubated with different doses of ligand in DMEM containing 30% Ultraculture (Hyclone) and 0.4% calf serum (Hyclone) to generate a dose response curve. […] Plates were read using a microplate reader at 420 nm. Data from R-SAT® assays were fit to the equation: r=A+B(x/(x+c)), where A=minimum response, B=maximum response minus minimum response, c=EC50, r=response, and x=concentration of ligand. Curves were generated using the curve fitting softwares Excel Fit and GraphPad Prism (San Diego, Calif.). Luciferase Reporter Gene Assay

Oc1ccc(C2(c3ccccc3F)CCC(F)(F)CC2)cc1 [Compound 8, 4-(4,4-Difluoro-1-(2-fluorophenyl)cyclohexyl)phenol]
Ki (ERα [1]): 79.4 nM
prepulse inhibition (sensorimotor gating) [2]: prevented the 6OHDA-induced deficit in PPI
motor performance (spontaneous locomotor activity, rotorod, challenging beam) [2]: prevented the impairment
novel object recognition (cognition) [2]: showed improved memory
Luciferase Erα % Eff (ERα [3]): 32%
EC50 (ERα [3]): 631 nM
R-SAT Erα % Eff (ERα [4]): 62%
EC50 (ERα [4]): 1000 nM

Oc1ccc(C2(c3cccc(F)c3Cl)CCCCC2)cc1 [Compound 623]
Ki (ERα [1]): 794 nM
prepulse inhibition (sensorimotor gating) [2]: prevented the 6OHDA-induced deficit in PPI
motor performance (spontaneous locomotor activity, rotorod, challenging beam) [2]: prevented the impairment
novel object recognition (cognition) [2]: showed improved memory
Luciferase Erα % Eff (ERα [3]): 15%
EC50 (ERα [3]): 398 nM
R-SAT Erα % Eff (ERα [4]): 45%
EC50 (ERα [4]): 398 nM

Oc1ccc(C2(c3ccccc3Cl)CCCCC2)cc1F [Compound 957]
Ki (ERα [1]): 200 nM
prepulse inhibition (sensorimotor gating) [2]: prevented the 6OHDA-induced deficit in PPI
motor performance (spontaneous locomotor activity, rotorod, challenging beam) [2]: prevented the impairment
novel object recognition (cognition) [2]: did not reverse the cognitive deficit
Luciferase Erα % Eff (ERα [3]): 13%
R-SAT Erα % Eff (ERα [4]): 58%
EC50 (ERα [4]): 631 nM

Reference: US9061981B2, “Diphenyl substituted cyclohexane derivatives, useful as modulators of the estrogen receptors beta” (Acadia Pharmaceuticals Inc., priority 2011, dated 2015)
